Data: article PMC10424178, “Discovery of 5-Phenylpyrazolopyrimidinone Analogs as Potent Antitrypanosomal Agents with In Vivo Efficacy” (Journal of Medicinal Chemistry, 2023)
“Also recorded” adds a separate entry of the source.

Legend:
T. b. brucei [1] = experiment: Antitrypanosomal assay, T. brucei Squib 427, resazurin viability; format: cell-based; settings: for times more potent than 1 against T. b. brucei: relative to 1
TbrPDEB1 = TbrPDEB1 (Trypanosoma brucei, UniProt Q8WQX9); experiment: TbrPDEB1 enzyme assay (PDELight HTS cAMP phosphodiesterase kit); format: biochemical, T. brucei
PDE5 = PDE5 (Homo sapiens, UniProt O76074); experiment: PDE5 inhibition; format: biochemical
human PDE4D2 = human PDE4D2 (Homo sapiens, UniProt Q08499); experiment: Eurofins Safety-47 panel, PDE4D2; settings: read-out: inhibition of human PDE4D2
T. b. brucei [2] = experiment: Acute (stage-I) mouse model of T. b. brucei infection; format: in vivo

Chain of TbrPDEB1 (Q8WQX9 entry or part of it): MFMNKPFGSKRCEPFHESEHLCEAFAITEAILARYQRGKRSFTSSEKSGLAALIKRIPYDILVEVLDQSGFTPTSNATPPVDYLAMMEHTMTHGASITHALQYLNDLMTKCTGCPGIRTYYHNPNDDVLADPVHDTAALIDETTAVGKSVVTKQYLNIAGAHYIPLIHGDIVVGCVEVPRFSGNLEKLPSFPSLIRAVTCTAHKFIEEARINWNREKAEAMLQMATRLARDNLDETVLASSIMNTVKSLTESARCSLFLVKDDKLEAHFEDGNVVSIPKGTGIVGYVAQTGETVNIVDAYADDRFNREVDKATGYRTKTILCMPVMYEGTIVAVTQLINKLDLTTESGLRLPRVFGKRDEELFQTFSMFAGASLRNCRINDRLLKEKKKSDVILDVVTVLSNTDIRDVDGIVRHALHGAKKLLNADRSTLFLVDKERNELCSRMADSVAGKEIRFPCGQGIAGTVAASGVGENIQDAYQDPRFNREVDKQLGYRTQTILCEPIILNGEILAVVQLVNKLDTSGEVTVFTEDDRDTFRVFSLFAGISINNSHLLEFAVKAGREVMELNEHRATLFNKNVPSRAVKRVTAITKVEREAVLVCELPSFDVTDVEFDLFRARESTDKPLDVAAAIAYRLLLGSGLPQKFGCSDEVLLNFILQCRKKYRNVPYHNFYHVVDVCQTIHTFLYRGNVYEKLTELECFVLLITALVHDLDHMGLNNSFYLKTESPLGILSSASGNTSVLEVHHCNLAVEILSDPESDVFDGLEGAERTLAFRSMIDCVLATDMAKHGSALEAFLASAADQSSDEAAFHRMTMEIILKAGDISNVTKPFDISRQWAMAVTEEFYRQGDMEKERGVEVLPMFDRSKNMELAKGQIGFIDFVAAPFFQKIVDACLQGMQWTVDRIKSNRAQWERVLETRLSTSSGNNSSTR
Chain of human PDE4D2 (Q08499 303-809): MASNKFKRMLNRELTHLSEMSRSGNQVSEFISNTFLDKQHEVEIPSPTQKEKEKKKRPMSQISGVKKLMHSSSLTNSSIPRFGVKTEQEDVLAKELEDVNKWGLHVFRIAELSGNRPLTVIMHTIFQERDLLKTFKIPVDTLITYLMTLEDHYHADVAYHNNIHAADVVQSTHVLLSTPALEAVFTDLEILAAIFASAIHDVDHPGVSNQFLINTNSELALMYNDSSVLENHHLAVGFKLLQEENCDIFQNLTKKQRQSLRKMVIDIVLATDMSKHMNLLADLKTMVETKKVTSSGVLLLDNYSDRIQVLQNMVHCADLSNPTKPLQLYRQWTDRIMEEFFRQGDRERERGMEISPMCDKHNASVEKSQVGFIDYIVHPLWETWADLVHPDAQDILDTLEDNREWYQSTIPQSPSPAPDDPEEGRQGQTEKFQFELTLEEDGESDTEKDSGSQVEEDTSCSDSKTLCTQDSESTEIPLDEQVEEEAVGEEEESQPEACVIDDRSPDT

Compound: CC(C)c1n[nH]c2c(=O)[nH]c(-c3ccccc3)nc12 [compound 15, 3-Isopropyl-5-phenyl-1,6-dihydro-7H-pyrazolo[4,3-d]pyrimidin-7-one]
- times more potent than 1 against T. b. brucei (T. b. brucei [1]): 125 times

Compound: CC(C)c1n[nH]c2c(=O)[nH]c(-c3ccncc3)nc12 [compound 16, 3-Isopropyl-5-(pyridin-4-yl)-1,6-dihydro-7H-pyrazolo[4,3-d]pyrimidin-7-one]
- times more potent than 1 against T. b. brucei (T. b. brucei [1]): 16 times

Compound: COc1ccccc1-c1nc2c(C(C)C)n[nH]c2c(=O)[nH]1 [compound 22, 3-Isopropyl-5-(2-methoxyphenyl)-1,6-dihydro-7H-pyrazolo[4,3-d]pyrimidin-7-one]
- reduction in potency against T. b. brucei compared with 15 (T. b. brucei [1]; relative to 15): 25 fold

Compound: CC(C)c1n[nH]c2c(=O)[nH]c(-c3ccc(F)cc3)nc12 [compound 30, 5-(4-Fluorophenyl)-3-isopropyl-1,6-dihydro-7H-pyrazolo[4,3-d]pyrimidin-7-one]
- TbrPDEB1 inhibition pKi (TbrPDEB1): inactive
- inhibition at 10 µM (PDE5): 52%
- inhibition at 10 µM (human PDE4D2): 75%
- time by which all animals relapsed and succumbed (T. b. brucei [2]; 25 mg/kg b.i.d. for 5 days): ≤ 11 dpi
- outcome of treatment (parasitemia / cure) (T. b. brucei [2]; 50 mg/kg PO twice daily for 5 consecutive days, follow-up 60 dpi): all infected mice were cured; also recorded: apparent full clearance of parasitemia; also recorded: complete cure

Compound: CC(C)c1n[nH]c2c(=O)[nH]c(-c3ccc(N4CCN(C)CC4)cc3)nc12 [compound 45, 3-Isopropyl-5-(4-(4-methylpiperazin-1-yl)phenyl)-1,6-dihydro-7H-pyrazolo[4,3-d]pyrimidin-7-one]
- IC50 (T. b. brucei [1]; Trypanosoma brucei, T. brucei Squib 427 strain, 72 h drug exposure, highest concentration 64 μM, mean of at least two independent experiments, read-out: T. b. brucei pIC50 (converted)): 20 µM
